From US20070078100A1, “Methods of detecting poly(adp-ribose) polymerase and other nad+ utilizing enzymes” (THE BOARD OF TRUSTEES OF THE UNIVERSITY OF ILLINOI, priority 2003, published 2007)
Where two headings read alike, the source gives them in different places.

Assays:
PARP-1 = target: T1, PARP-1 (Homo sapiens, UniProt P09874); experiment: NAD+ quantitation (fluorescence) assay, determination of IC50 values for PARP inhibitors; type: biochemical
T1 construct: purchased Trevigen
Description: This assay was also applied to determine the IC50 values of the known PARP inhibitors. For these determinations, the inhibitors, at a variety of concentrations, were added to a 96-well plate containing NAD+ and nicked DNA. PARP-1 was then added, and the reaction was allowed to proceed for 15 min. At this point acetophenone/KOH was added, which serves to both quench the PARP-1 enzymatic activity and to begin the conversion of any remaining NAD+ to the fluorophore. After 10 min at 4° C. in the presence of acetophenone/KOH, a solution of formic acid was added and the mixture was incubated in a 110° C. oven for 5 minutes.
In addition, only very low levels of NAD+ were used in this assay (100 nM). […] However, NAD+ concentrations up to 100 μM can also be used, if one desires a direct correlation with other assay methods that typically use micromolar amounts of NAD+ substrate.
The reaction was initiated by adding 10 μL of PARP at a concentration of 10 μg/mL (in PARP assay buffer), bringing the final concentration to 2 μg/mL PARP, 10 μg/mL DNA, 100 nM NAD+ with varying concentrations of inhibitors in a total volume of 50 μL. The plate was incubated for 15 min at room temperature and the amount of NAD+ was then determined by the fluorescence method as described above for the calibration curve. The average value of control wells containing only NAD+ was set as 0% PARP activity, while the average value of control wells containing NAD+ and PARP (but no inhibitor) was set as 100% PARP activity. […] All data points in FIG. 8 were determined in quadruplicate.
Graphs were analyzed using Table Curve 2D. NAD+ standard curves were fitted with a least squares linear model and inhibitor curves were fitted with a logistic dose response curve.

PARP = PARP (Homo sapiens, UniProt P09874); conditions: literature values, references in brackets; cited from earlier work
PARP, sequence (P09874 whole entry): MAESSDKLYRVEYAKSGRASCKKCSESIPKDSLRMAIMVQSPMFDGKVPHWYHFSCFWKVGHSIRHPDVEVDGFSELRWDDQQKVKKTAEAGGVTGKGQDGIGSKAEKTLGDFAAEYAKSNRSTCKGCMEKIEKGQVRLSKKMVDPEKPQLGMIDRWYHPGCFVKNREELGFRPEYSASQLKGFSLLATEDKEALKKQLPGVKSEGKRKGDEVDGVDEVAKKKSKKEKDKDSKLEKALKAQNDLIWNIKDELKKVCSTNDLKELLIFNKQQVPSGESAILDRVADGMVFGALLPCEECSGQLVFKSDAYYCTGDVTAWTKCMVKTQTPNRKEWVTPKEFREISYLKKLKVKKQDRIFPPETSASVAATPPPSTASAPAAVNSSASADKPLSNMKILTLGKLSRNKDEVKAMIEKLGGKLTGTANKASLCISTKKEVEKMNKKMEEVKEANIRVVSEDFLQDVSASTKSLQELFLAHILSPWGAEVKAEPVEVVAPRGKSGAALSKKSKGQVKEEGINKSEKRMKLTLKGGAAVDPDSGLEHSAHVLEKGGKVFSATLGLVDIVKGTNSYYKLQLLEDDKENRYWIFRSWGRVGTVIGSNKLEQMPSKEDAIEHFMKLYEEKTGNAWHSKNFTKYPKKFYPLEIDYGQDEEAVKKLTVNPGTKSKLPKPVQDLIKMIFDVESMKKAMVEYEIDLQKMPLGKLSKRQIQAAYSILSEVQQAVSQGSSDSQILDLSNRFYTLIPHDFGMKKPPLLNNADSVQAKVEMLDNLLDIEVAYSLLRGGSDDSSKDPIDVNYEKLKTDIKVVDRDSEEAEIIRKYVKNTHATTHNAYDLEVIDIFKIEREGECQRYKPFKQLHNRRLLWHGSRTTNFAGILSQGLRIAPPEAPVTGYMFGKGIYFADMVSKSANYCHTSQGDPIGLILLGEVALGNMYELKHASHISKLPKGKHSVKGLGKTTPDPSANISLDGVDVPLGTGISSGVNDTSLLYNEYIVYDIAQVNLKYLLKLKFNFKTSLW

[1] = 100 nM NAD+, 2 μg/mL PARP, 10 μg/mL DNA, 15 min at room temperature, 96-well plate, read-out: IC50 value

T1 sequence (P09874 whole entry): as above

| SMILES | IC50 (PARP-1; [1]) [nM] | IC50 (PARP-1) [nM] | IC50 (PARP) [nM] |
| --- | --- | --- | --- |
| O=c1[nH]c2ccccc2c2ccccc12 [6(5H)-phenanthridinons, 6(5H)-phenanthridinone] | 305 | – | – |
| O=C1NCCc2c(OCCCCN3CCCCC3)cccc21 [DPQ, 3,4-dihydro-5-[4-(1-piperidinyl)butoxy]-1 (2B)-isoquinolinone] | – | 37 | – |
| NC(=O)c1ccccc1 [benzamide] | 1440 | – | 1300 |
